Results: patent US10501498B2 (BGI SHENZHEN, priority 2014, dated 2019)
Entries after “also recorded” stand apart in the source; their conditions may differ.

Tested on: HVA calcium channel
Type: cell-based, rat

KCCTMSVCQPPPVCTCCA [κ-CPTx-btl01] was tested, and the current after loading was −459.93 pA, the “inhibition of HVA calcium channel currents compared with Nifedipine (positive control)” value was “inhibitory effect is higher than that of Nifedipine; also recorded: higher inhibition rate on HVA calcium channel currents than Nifedipine” and the inhibition rate (10 µM) was 52.17%.
